The values below come from patent US11891365B2, “3-alkyl-4-amido-bicyclic [4,5,0] hydroxamic acids as HDAC inhibitors” (Valo Health, Inc., priority 2015, dated 2024).

The target of the test is T1, Full length human recombinant HDAC6 protein (Homo sapiens, UniProt Q9UBN7).
T1 sequence (Q9UBN7 1-1215): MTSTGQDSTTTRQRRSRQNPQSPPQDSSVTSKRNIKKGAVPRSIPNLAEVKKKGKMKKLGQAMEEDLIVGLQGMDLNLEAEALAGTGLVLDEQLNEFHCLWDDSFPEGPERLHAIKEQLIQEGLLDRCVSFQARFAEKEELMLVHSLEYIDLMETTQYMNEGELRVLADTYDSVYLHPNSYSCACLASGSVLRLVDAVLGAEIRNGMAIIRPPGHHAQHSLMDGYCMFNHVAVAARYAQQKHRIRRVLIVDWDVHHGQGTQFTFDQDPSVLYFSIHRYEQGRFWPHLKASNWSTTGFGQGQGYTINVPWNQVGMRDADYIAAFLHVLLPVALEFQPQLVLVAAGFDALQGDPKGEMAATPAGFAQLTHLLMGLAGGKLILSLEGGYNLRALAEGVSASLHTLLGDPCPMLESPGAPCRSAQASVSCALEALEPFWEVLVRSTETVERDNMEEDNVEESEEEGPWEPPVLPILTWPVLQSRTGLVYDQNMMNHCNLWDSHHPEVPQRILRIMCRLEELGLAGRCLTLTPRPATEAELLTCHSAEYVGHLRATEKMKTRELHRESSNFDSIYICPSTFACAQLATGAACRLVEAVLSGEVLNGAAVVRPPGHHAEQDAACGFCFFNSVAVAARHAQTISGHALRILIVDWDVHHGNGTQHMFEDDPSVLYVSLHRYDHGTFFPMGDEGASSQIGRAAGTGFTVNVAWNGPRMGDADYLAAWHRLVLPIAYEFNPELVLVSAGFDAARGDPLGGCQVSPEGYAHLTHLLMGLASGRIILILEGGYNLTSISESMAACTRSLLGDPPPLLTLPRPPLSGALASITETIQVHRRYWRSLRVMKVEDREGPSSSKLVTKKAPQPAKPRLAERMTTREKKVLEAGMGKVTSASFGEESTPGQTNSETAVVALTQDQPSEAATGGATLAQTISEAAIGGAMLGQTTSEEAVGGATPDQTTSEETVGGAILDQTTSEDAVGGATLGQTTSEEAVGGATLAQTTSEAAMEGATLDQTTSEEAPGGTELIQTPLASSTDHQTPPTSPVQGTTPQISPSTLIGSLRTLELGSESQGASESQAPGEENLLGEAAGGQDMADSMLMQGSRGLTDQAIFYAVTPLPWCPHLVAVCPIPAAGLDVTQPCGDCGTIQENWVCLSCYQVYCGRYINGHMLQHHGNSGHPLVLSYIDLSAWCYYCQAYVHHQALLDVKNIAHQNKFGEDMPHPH
As to the kind of experiment: In vitro histone deacetylase assay: enzymatic HDAC6 electrophoretic mobility shift assay. It is filed as biochemical. To be noted: 1 nM enzyme, 2 μM peptide substrate RHKK(Ac)-NH2, 25° C., 12 concentrations; read-out: Inhibitory Concentration (IC50) Values against HDAC6, Activity Range. In general terms: In EMSA bound probe runs differently from free probe, usually more slowly.

Structures are written as SMILES.

Take `CC(C)C(=O)N1Cc2ccc(C(=O)NO)cc2OC[C@@H]1C` [(S)-N-hydroxy-4-isobutyryl-3-methyl-2,3,4,5-tetrahydrobenzo[f][1,4]oxazepine-8-carboxamide]: the IC50 was not above 100 nM.

With `C[C@H]1COc2cc(C(=O)NO)ccc2CN1C(=O)C(C)(C)CO` [(S)-N-hydroxy-4-(3-hydroxy-2,2-dimethylpropanoyl)-3-methyl-2,3,4,5-tetrahydrobenzo[f][1,4]oxazepine-8-carboxamide], the IC50 is not above 100 nM.

As for `CCC(=O)N1Cc2ccc(C(=O)NO)cc2OC[C@@H]1C` [(S)-N-hydroxy-3-methyl-4-propionyl-2,3,4,5-tetrahydrobenzo[f][1,4]oxazepine-8-carboxamide], the IC50 was not above 100 nM.

Regarding `CC1(C(=O)N2Cc3ccc(C(=O)NO)cc3O[C@@H](c3ccccc3)C2)CCC1` [(S)-N-hydroxy-4-(1-methylcyclobutane-1-carbonyl)-2-phenyl-2,3,4,5-tetrahydrobenzo[f][1,4]oxazepine-8-carboxamide], the IC50 is not above 100 nM.

For the molecule `O=C(NO)c1ccc2c(c1)OCCN(C(=O)C1Cc3ccccc31)C2` (centres unmarked) [4-(bicyclo[4.2.0]octa-1(6),2,4-triene-7-carbonyl)-N-hydroxy-2,3,4,5-tetrahydrobenzo[f][1,4]oxazepine-8-carboxamide], the IC50 is not above 100 nM.

For the molecule `O=C(NO)c1ccc2c(c1)OCCN(C(=O)C1CCOCC1)C2` [N-hydroxy-4-(tetrahydro-2H-pyran-4-carbonyl)-2,3,4,5-tetrahydrobenzo[f][1,4]oxazepine-8-carboxamide], the IC50 was not above 100 nM.

On to `CC(C)(O)C(=O)N1CCOc2cc(C(=O)NO)ccc2C1` [N-hydroxy-4-(2-hydroxy-2-methylpropanoyl)-2,3,4,5-tetrahydrobenzo[f][1,4]oxazepine-8-carboxamide], for which the IC50 was 100 to 500 nM.

On to `O=C(NO)c1ccc2c(c1)OCCN(C(=O)C(c1ccccc1)N1CCC(O)CC1)C2` (centres unmarked) [N-hydroxy-4-(2-(4-hydroxypiperidin-1-yl)-2-phenylacetyl)-2,3,4,5-tetrahydrobenzo[f][1,4]oxazepine-8-carboxamide], for which the IC50 fell in the range of 100 to 500 nM.

As for `C[C@H]1c2ccc(C(=O)NO)cc2OCCN1C(=O)C1CCOCC1` [(S)-N-hydroxy-5-methyl-4-(tetrahydro-2H-pyran-4-carbonyl)-2,3,4,5-tetrahydrobenzo[f][1,4]oxazepine-8-carboxamide], the IC50 was not above 100 nM.

In the case of `CC(C)(C(=O)N1CCOc2cc(C(=O)NO)ccc2C1)c1ccccc1` [N-hydroxy-4-(2-methyl-2-phenylpropanoyl)-2,3,4,5-tetrahydrobenzo[f][1,4]oxazepine-8-carboxamide], the IC50 lay within 100 to 500 nM.

Consider `C[C@H]1c2cc(C(=O)NO)ccc2OCCN1C(=O)C1(C)CCC1` [(S)-N-hydroxy-5-methyl-4-(1-methylcyclobutane-1-carbonyl)-2,3,4,5-tetrahydrobenzo[f][1,4]oxazepine-7-carboxamide], for which the IC50 fell in the range of 100 to 500 nM.

`O=C(NO)c1ccc2c(c1)OCCN(C(=O)C1(c3ccccc3Cl)CC1)C2` [4-(1-(2-chlorophenyl)cyclopropane-1-carbonyl)-N-hydroxy-2,3,4,5-tetrahydrobenzo[f][1,4]oxazepine-8-carboxamide]: the IC50 was not above 100 nM.

With `O=C(NO)c1ccc2c(c1)O[C@@H]1C[C@H]2N(C(=O)C2CCOCC2)C1` [(2R,5R)-N-hydroxy-4-(tetrahydro-2H-pyran-4-carbonyl)-2,3,4,5-tetrahydro-2,5-methanobenzo[f][1,4]oxazepine-8-carboxamide], the IC50 was in the range of 100 to 500 nM.

For the molecule `CC(=O)N1Cc2ccc(C(=O)NO)cc2OCC1(C)C` [4-acetyl-N-hydroxy-3,3-dimethyl-2,3,4,5-tetrahydrobenzo[f][1,4]oxazepine-8-carboxamide], the IC50 was in the range of 100 to 500 nM.

As for `O=C(NO)c1cnc2c(c1)OCCN(C(=O)C1CCCCC1)C2` [4-(cyclohexanecarbonyl)-N-hydroxy-2,3,4,5-tetrahydropyrido[2,3-f][1,4]oxazepine-8-carboxamide], the IC50 lay in the range of 100 to 500 nM.

On to `O=CN1Cc2ccc(C(=O)NO)cc2O[C@H](c2ccccc2)C1` [(R)-4-formyl-N-hydroxy-2-phenyl-2,3,4,5-tetrahydrobenzo[f][1,4]oxazepine-8-carboxamide], for which the IC50 was not above 100 nM.

Regarding `COC[C@@H]1CN(C=O)Cc2ccc(C(=O)NO)cc2O1` [(S)-4-formyl-N-hydroxy-2-(methoxymethyl)-2,3,4,5-tetrahydrobenzo[f][1,4]oxazepine-8-carboxamide], the IC50 lay within 100 to 500 nM.

For `COc1ccc(C(=O)N2CCOc3cc(C(=O)NO)ccc3C2)c(OC)c1` [4-(2,4-dimethoxybenzoyl)-N-hydroxy-2,3,4,5-tetrahydrobenzo[f][1,4]oxazepine-8-carboxamide], the IC50 was in the range of 100 to 500 nM.

On to `COc1ccc(CC(=O)N2CC(=O)Nc3ccc(C(=O)NO)cc3C2)cc1` [N-hydroxy-4-(2-(4-methoxyphenyl)acetyl)-2-oxo-2,3,4,5-tetrahydro-1H-benzo[e][1,4]diazepine-7-carboxamide], for which the IC50 was more than 500 nM.

For `O=C1CN(C(=O)C2CCCCC2)Cc2cc(C(=O)NO)ccc2N1` [4-(cyclohexanecarbonyl)-N-hydroxy-2-oxo-2,3,4,5-tetrahydro-1H-benzo[e][1,4]diazepine-7-carboxamide], the IC50 was more than 500 nM.

For `O=C(NO)c1ccc2c(c1)OCCN(C(=O)C1CC3CCC(C1)O3)C2` (centres unmarked) [4-(8-oxabicyclo[3.2.1]octane-3-carbonyl)-N-hydroxy-2,3,4,5-tetrahydrobenzo[f][1,4]oxazepine-8-carboxamide], the IC50 is not above 100 nM.

As to `COC[C@H]1CN(C(=O)C2(C)CCC2)Cc2ccc(C(=O)NO)cc2O1` [(R)-N-hydroxy-2-(methoxymethyl)-4-(1-methylcyclobutane-1-carbonyl)-2,3,4,5-tetrahydrobenzo[f][1,4]oxazepine-8-carboxamide], the IC50 is 100 to 500 nM.

Regarding `CC(C)(C(=O)N1CCOc2cc(C(=O)NO)ccc2C1)c1cccs1` [N-hydroxy-4-(2-methyl-2-(thiophen-2-yl)propanoyl)-2,3,4,5-tetrahydrobenzo[f][1,4]oxazepine-8-carboxamide], the IC50 was not above 100 nM.

Consider `C[C@H]1COc2cc(C(=O)NO)ccc2CN1C(=O)C1CCC(OC(F)(F)F)CC1` (single isomer, unassigned), for which the IC50 was not above 100 nM.

On to `C[C@H]1COc2cc(C(=O)NO)ccc2CN1C(=O)C1CCCC1` [(S)-4-(cyclopentanecarbonyl)-N-hydroxy-3-methyl-2,3,4,5-tetrahydrobenzo[f][1,4]oxazepine-8-carboxamide], for which the IC50 was not above 100 nM.

For the molecule `CC(C)[C@H]1COc2cc(C(=O)NO)ccc2CN1C(=O)C1CCOCC1` [(S)-N-hydroxy-3-isopropyl-4-(tetrahydro-2H-pyran-4-carbonyl)-2,3,4,5-tetrahydrobenzo[f][1,4]oxazepine-8-carboxamide], the IC50 was not above 100 nM.

On to `CC1(C(=O)N2CCOc3cc(C(=O)NO)ccc3C2)CC1` [N-hydroxy-4-(1-methylcyclopropane-1-carbonyl)-2,3,4,5-tetrahydrobenzo[f][1,4]oxazepine-8-carboxamide], for which the IC50 is not above 100 nM.

As for `CC(C)(C)OC(=O)N1CCC2(CCC(C(=O)N3CCOc4cc(C(=O)NO)ccc4C3)C2)CC1` (centres unmarked) [tert-butyl 2-(8-(hydroxycarbamoyl)-2,3,4,5-tetrahydrobenzo[f][1,4]oxazepine-4-carbonyl)-8-azaspiro[4.5]decane-8-carboxylate], the IC50 was in the range of 100 to 500 nM.

With `COc1cccc(C(=O)N2CCOc3cc(C(=O)NO)ccc3C2)c1` [N-hydroxy-4-(3-methoxybenzoyl)-2,3,4,5-tetrahydrobenzo[f][1,4]oxazepine-8-carboxamide], the IC50 lay in the range of 100 to 500 nM.

For `CC(C)(C(=O)N1CCOc2cc(C(=O)NO)ccc2C1)c1ccc(F)cc1` [4-(2-(4-fluorophenyl)-2-methylpropanoyl)-N-hydroxy-2,3,4,5-tetrahydrobenzo[f][1,4]oxazepine-8-carboxamide], the IC50 lay in the range of 100 to 500 nM.

On to `O=C(NO)c1ccc2c(c1)OCCN(C(=O)C(c1ccccc1)n1cccn1)C2` (centres unmarked) [N-hydroxy-4-(2-phenyl-2-(1H-pyrazol-1-yl)acetyl)-2,3,4,5-tetrahydrobenzo[f][1,4]oxazepine-8-carboxamide], for which the IC50 is 100 to 500 nM.

With `O=C(NO)c1ccc2c(c1)OCCN(C(=O)c1ccc(OC(F)F)cc1)C2` [4-(4-(difluoromethoxy)benzoyl)-N-hydroxy-2,3,4,5-tetrahydrobenzo[f][1,4]oxazepine-8-carboxamide], the IC50 is 100 to 500 nM.
